IC50 data for 28 molecules are collected here from US11708359B2, “Monoacylglycerol lipase modulators” (Janssen Pharmaceutica NV, priority 2020, dated 2023).

Like-named read-outs stand apart in the source and are kept apart here.

In this assay the target is human MGL from HeLa cells (Homo sapiens (Human), UniProt Q99685). Briefly: MGL in vitro activity assay ([glycerol-1,3-3H]-oleoyl glycerol cleavage, activated carbon filter). It is filed as biochemical. As to the method:
The assay consists of combining endogenously expressed MGL from HeLa cells with test compounds, adding[glycerol-1,3-^3H]-oleoyl glycerol, incubating for one hour, and then measuring the amount of cleaved[1,3-^3H]-glycerol that passes through an activated carbon filter. The amount of cleaved, tritiated glycerol passing through the carbon filter is proportional to the activity of the MGL enzyme in a particular well/test condition.
Standard conditions for this assay combine 300 nM [Glycerol-1,3-^3H]-oleoyl glycerol with human MGL from HeLa cells and test compounds for one hour, after which the reaction is filtered through activated carbon and tritium is measured in the flow through. […] MGL is the predominant hydrolase in HeLa cells/cell homogenates.

Setting [1] is: 300 nM [Glycerol-1,3-3H]-oleoyl glycerol, endogenously expressed MGL from HeLa cells, one hour incubation, read-out: MGL IC50.

human MGL from HeLa cells, sequence (Q99685 whole entry): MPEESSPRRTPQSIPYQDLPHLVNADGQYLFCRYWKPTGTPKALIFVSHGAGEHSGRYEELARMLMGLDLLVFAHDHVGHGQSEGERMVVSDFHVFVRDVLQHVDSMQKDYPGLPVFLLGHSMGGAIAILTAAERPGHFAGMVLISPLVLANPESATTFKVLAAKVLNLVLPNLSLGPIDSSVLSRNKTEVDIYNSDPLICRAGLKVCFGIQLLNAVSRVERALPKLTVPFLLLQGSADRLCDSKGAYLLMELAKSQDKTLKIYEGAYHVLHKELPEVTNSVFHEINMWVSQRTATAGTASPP

What is called IC50 is the concentration that gives 50% inhibition. With `Cc1cc(C23CC2CN(C(=O)[C@H]2C[C@]4(COC(=O)N4)C2)C3)ccc1C(F)(F)F` (mixture of isomers) [Example 36, (rac)-(2s,4s)-2-(1-(3-Methyl-4-(trifluoromethyl)phenyl)-3-azabicyclo[3.1.0]hexane-3-carbonyl)-7-oxa-5-azaspiro[3.4]octan-6-one], the IC50 under setting [1] amounted to 3.2 nM.
Same read-out and setting: then `Cc1ccc(C23CC2CN(C(=O)[C@H]2C[C@]4(COC(=O)N4)C2)C3)cc1F` (mixture of isomers) [Example 37, (rac)-(2s,4s)-2-(1-(3-Fluoro-4-methylphenyl)-3-azabicyclo[3.1.0]hexane-3-carbonyl)-7-oxa-5-azaspiro[3.4]octan-6-one], with 10 nM.
On the same count and under the same terms, the same measure for `O=C1N[C@]2(CO1)C[C@H](C(=O)N1CCC3(c4ccccc4)CC3C1)C2` (mixture of isomers) [Example 39, (rac)-(2s,4s)-2-(6-Phenyl-3-azabicyclo[4.1.0]heptane-3-carbonyl)-7-oxa-5-azaspiro[3.4]octan-6-one]: 20 nM; for `Cc1cccc(C23CCN(C(=O)[C@H]4C[C@]5(COC(=O)N5)C4)CC2C3)c1` (mixture of isomers) [Example 43, (rac)-(2s,4s)-2-(6-(m-Tolyl)-3-azabicyclo[4.1.0]heptane-3-carbonyl)-7-oxa-5-azaspiro[3.4]octan-6-one]: 8.2 nM.
The same measure, in the same setting: the same measure for `Cc1ccc(C23CCN(C(=O)[C@H]4C[C@]5(COC(=O)N5)C4)CC2C3)cc1F` (mixture of isomers) [Example 46, (rac)-(2s,4s)-2-(6-(3-Fluoro-4-methylphenyl)-3-azabicyclo[4.1.0]heptane-3-carbonyl)-7-oxa-5-azaspiro[3.4]octan-6-one]: 3.7 nM.
Take `O=C1N[C@]2(CO1)C[C@H](C(=O)N1CCC3(c4cccc(OC(F)(F)F)c4)CC3C1)C2` (mixture of isomers) [Example 49, (rac)-(2s,4s)-2-(6-(3-(Trifluoromethoxy)phenyl)-3-azabicyclo[4.1.0]heptane-3-carbonyl)-7-oxa-5-azaspiro[3.4]octan-6-one]: the IC50 was 1.6 nM.
`O=C1CC[C@]2(C[C@H](C(=O)N3CCC4(c5cccc(OC(F)(F)F)c5)CC4C3)C2)N1` (mixture of isomers) [Example 52, (rac)-(2r,4s)-2-(6-(3-(Trifluoromethoxy)phenyl)-3-azabicyclo[4.1.0]heptane-3-carbonyl)-5-azaspiro[3.4]octan-6-one]: the half-inhibitory concentration (IC50) under setting [1] turned out to be 4.8 nM.
Take `O=C1N[C@]2(CO1)C[C@H](C(=O)N1CCC3(c4ccc(OC(F)(F)F)cc4)CC3C1)C2` (mixture of isomers) [Example 54, (rac)-(2s,4s)-2-(6-(4-(Trifluoromethoxy)phenyl)-3-azabicyclo[4.1.0]heptane-3-carbonyl)-7-oxa-5-azaspiro[3.4]octan-6-one]: under setting [1], the IC50 was 2.5 nM.
As for `O=C1CC[C@]2(C[C@H](C(=O)N3CCC4(c5ccc(OC(F)(F)F)cc5)CC4C3)C2)N1` (mixture of isomers) [Example 55, (rac)-(2r,4s)-2-(6-(4-(Trifluoromethoxy)phenyl)-3-azabicyclo[4.1.0]heptane-3-carbonyl)-5-azaspiro[3.4]octan-6-one], the half-maximal inhibitory concentration (IC50) under setting [1] amounted to 10 nM.
The same measure, in the same setting: then `Cc1ccc(C23CCN(C(=O)[C@H]4C[C@]5(COC(=O)N5)C4)CC2C3)cc1` (mixture of isomers) [Example 56, (rac)-(2s,4s)-2-(6-(p-Tolyl)-3-azabicyclo[4.1.0]heptane-3-carbonyl)-7-oxa-5-azaspiro[3.4]octan-6-one], with 7.7 nM.
Still for that read-out and setting: then `O=C1N[C@]2(CO1)C[C@H](C(=O)N1CCC3(c4cccc(C(F)(F)F)c4)CC3C1)C2` (mixture of isomers) [Example 57, (rac)-(2s,4s)-2-(6-(3-(Trifluoromethyl)phenyl)-3-azabicyclo[4.1.0]heptane-3-carbonyl)-7-oxa-5-azaspiro[3.4]octan-6-one], with 1.9 nM; and `CC(C)(C)c1cccc(C23CCN(C(=O)[C@H]4C[C@]5(COC(=O)N5)C4)CC2C3)c1` (mixture of isomers) [Example 60, (rac)-(2s,4s)-2-(6-(3-(tert-Butyl)phenyl)-3-azabicyclo[4.1.0]heptane-3-carbonyl)-7-oxa-5-azaspiro[3.4]octan-6-one], with 0.0072 nM.
The same measure, in the same setting: the same measure for `CC(C)(C)c1cccc(C23CCN(C(=O)[C@H]4C[C@]5(CCC(=O)N5)C4)CC2C3)c1` (mixture of isomers) [Example 61, (rac)-(2r,4s)-2-(6-(3-(tert-Butyl)phenyl)-3-azabicyclo[4.1.0]heptane-3-carbonyl)-5-azaspiro[3.4]octan-6-one]: 0.25 nM; for `CC(C)(C)c1ccc(C23CCN(C(=O)[C@H]4C[C@]5(CCC(=O)N5)C4)CC2C3)cc1` (mixture of isomers) [Example 63, (rac)-(2r,4s)-2-(6-(4-(tert-Butyl)phenyl)-3-azabicyclo[4.1.0]heptane-3-carbonyl)-5-azaspiro[3.4]octan-6-one]: 0.41 nM; for `O=C1N[C@]2(CO1)C[C@H](C(=O)N1CCC3(c4cccc(C5CC5)c4)CC3C1)C2` (mixture of isomers) [Example 64, (rac)-(2s,4s)-2-(6-(3-Cyclopropylphenyl)-3-azabicyclo[4.1.0]heptane-3-carbonyl)-7-oxa-5-azaspiro[3.4]octan-6-one]: 0.65 nM.
Consider `O=C1CC[C@]2(C[C@H](C(=O)N3CCC4(c5cccc(C6CC6)c5)CC4C3)C2)N1` (mixture of isomers) [Example 65, (rac)-(2r,4s)-2-(6-(3-Cyclopropylphenyl)-3-azabicyclo[4.1.0]heptane-3-carbonyl)-5-azaspiro[3.4]octan-6-one], for which the 50% inhibitory concentration (IC50) under setting [1] was determined as 4 nM.
The same measure, in the same setting: then `O=C1N[C@]2(CO1)C[C@H](C(=O)N1CCC3(c4ccc(C5CC5)cc4)CC3C1)C2` (mixture of isomers) [Example 66, (rac)-(2s,4s)-2-(6-(4-Cyclopropylphenyl)-3-azabicyclo[4.1.0]heptane-3-carbonyl)-7-oxa-5-azaspiro[3.4]octan-6-one], with 0.69 nM; and `Cc1ccc(C23CCN(C(=O)[C@H]4C[C@]5(CCC(=O)N5)C4)CC2C3)cc1Cl` (mixture of isomers) [Example 68, (rac)-(2r,4s)-2-(6-(3-Chloro-4-methylphenyl)-3-azabicyclo[4.1.0]heptane-3-carbonyl)-5-azaspiro[3.4]octan-6-one], with 5.6 nM.
On the same count and under the same terms, then `CC1(c2ccc(C34CCN(C(=O)[C@H]5C[C@]6(CCC(=O)N6)C5)CC3C4)cc2)CC1` (mixture of isomers) [Example 70, (rac)-(2r,4s)-2-(6-(4-(1-Methylcyclopropyl)phenyl)-3-azabicyclo[4.1.0]heptane-3-carbonyl)-5-azaspiro[3.4]octan-6-one], with 0.52 nM; and `Cc1cc(C2CC2)ccc1C12CCN(C(=O)[C@H]3C[C@]4(COC(=O)N4)C3)CC1C2` (mixture of isomers) [Example 72, (rac)-(2s,4s)-2-(6-(4-Cyclopropyl-2-methylphenyl)-3-azabicyclo[4.1.0]heptane-3-carbonyl)-7-oxa-5-azaspiro[3.4]octan-6-one], with 2.1 nM.
Same read-out and setting: then `CC(C)c1cccc(C23CCN(C(=O)[C@H]4C[C@]5(COC(=O)N5)C4)CC2C3)c1` (mixture of isomers) [Example 73, (rac)-(2s,4s)-2-(6-(3-Isopropylphenyl)-3-azabicyclo[4.1.0]heptane-3-carbonyl)-7-oxa-5-azaspiro[3.4]octan-6-one], with 0.25 nM.
Regarding `Cc1ccc(C23CCN(C(=O)[C@H]4C[C@]5(COC(=O)N5)C4)CC2C3)cc1OC(F)(F)F` (mixture of isomers) [Example 75, (rac)-(2s,4s)-2-(6-(4-Methyl-3-(trifluoromethoxy)phenyl)-3-azabicyclo[4.1.0]heptane-3-carbonyl)-7-oxa-5-azaspiro[3.4]octan-6-one], the IC50 amounted to 0.34 nM.
Same read-out and setting: then `Cc1ccc(C23CCN(C(=O)[C@H]4C[C@]5(CCC(=O)N5)C4)CC2C3)cc1OC(F)(F)F` (mixture of isomers) [Example 76, (rac)-(2r,4s)-2-(6-(4-Methyl-3-(trifluoromethoxy)phenyl)-3-azabicyclo[4.1.0]heptane-3-carbonyl)-5-azaspiro[3.4]octan-6-one], with 2.6 nM.
Turning to `O=C1N[C@]2(CO1)C[C@H](C(=O)N1CCC3CC3(c3ccccc3)C1)C2` (mixture of isomers) [Example 77, (rac)-(2s,4s)-2-(1-Phenyl-3-azabicyclo[4.1.0]heptane-3-carbonyl)-7-oxa-5-azaspiro[3.4]octan-6-one], under setting [1], the half-maximal inhibitory concentration (IC50) was determined as 241 nM.
Still for that read-out and setting: the same measure for `CCc1ccc(C23CC2CN(C(=O)[C@H]2C[C@]4(COC(=O)N4)C2)C3)cc1` (mixture of isomers) [Example 94, (rac)-(2s,4s)-2-(1-(4-Ethylphenyl)-3-azabicyclo[3.1.0]hexane-3-carbonyl)-7-oxa-5-azaspiro[3.4]octan-6-one]: 3.5 nM; for `Cc1ccccc1[C@H]1[C@@H]2CN(C(=O)[C@H]3C[C@]4(COC(=O)N4)C3)C[C@@]21C` (racemic) [Example 97, (rac)-(2s,4*S)-2-((1*R,5*S,6*R)-1-Methyl-6-(o-tolyl)-3-azabicyclo[3.1.0]hexane-3-carbonyl)-7-oxa-5-azaspiro[3.4]octan-6-one]: 180 nM.
The same measure, in the same setting: the same measure for `Cc1ccc([C@H]2[C@@H]3CN(C(=O)[C@H]4C[C@]5(COC(=O)N5)C4)C[C@@]32C)cc1C` (racemic) [Example 102, (rac)-(2s,4*5)-2-((1*R,5*S,6*R)-6-(3,4-Dimethylphenyl)-1-methyl-3-azabicyclo[3.1.0]hexane-3-carbonyl)-7-oxa-5-azaspiro[3.4]octan-6-one]: 23 nM; for `C[C@]12CN(C(=O)[C@H]3C[C@]4(COC(=O)N4)C3)C[C@H]1[C@@H]2c1cccc(C(F)(F)F)c1` (racemic) [Example 106, (rac)-(2s,4*5)-2-((1*R,5*S,6*R)-1-Methyl-6-(3-(trifluoromethyl)phenyl)-3-azabicyclo[3.1.0]hexane-3-carbonyl)-7-oxa-5-azaspiro[3.4]octan-6-one]: 28 nM.
